# According to patent US20230263822A1, “MODULATION OF FACTOR 11 EXPRESSION” (Ionis Pharmaceuticals, Inc., priority 2008, published 2023):
# Assays:
# [1] = system: blood coagulation; experiment: Ex vivo PT and aPTT in murine plasma, ISIS 404071 with LOVENOX (Example 16); design: species or system BALB/c mice; details: for PT INR in murine plasma / aPTT INR in murine plasma: LOVENOX 0
# Method: A control mouse group was treated with PBS, administered twice a week for 3 weeks. Five days after the last dose, the mice were sacrificed and plasma was collected. The low-molecular-weight (LMW) heparin, LOVENOX, was administered to the plasma ex vivo at varying concentrations of 0 μg/ml, 2.5 μg/ml, 5.0 μg/ml, and 7.5 μg/ml. PT and aPTT were measured 20 minutes after LOVENOX was administered.
# [2] = system: blood coagulation; experiment: PT and aPTT assay in platelet poor plasma (Example 10); assay type: in vivo; details: BALB/c mice
# Method: BALB/c mice were injected with 5 mg/kg, 10 mg/kg, 25 mg/kg, or 50 mg/kg of ISIS 404057 or ISIS 404071 twice a week for 3 weeks. A control group of mice was injected with phosphate buffered saline (PBS) twice a week for 3 weeks. Mice were sacrificed 5 days after receiving the last dose. Whole liver was harvested for RNA analysis and plasma was collected for clotting analysis (PT and aPTT) and protein analysis.
# Prothrombin Time (PT) and Activated Partial Thromboplastin Time (aPTT) were measured using platelet poor plasma (PPP) from mice treated with ISIS 404057 and ISIS 404071. PT and aPTT values provided in Table 18 are reported as International Normalized Ratio (INR) values. INR values for PT and aPTT were determined by dividing the PT or aPTT value for each experimental group (i.e. 5 mg/kg, 10 mg/kg, 25 mg/kg, and 50 mg/kg treatment with ISIS 404057 or ISIS 404071) by the PT or aPTT for the PBS treated group. This ratio was then raised to the power of the International Sensitivity Index (ISI) of the tissue factor used.
# [3] = system: mouse Factor 11 mRNA; experiment: Sense-oligonucleotide antidote: Factor 11 mRNA in liver (Example 23); assay type: in vivo, BALB/c mice; details: for Percent inhibition of mouse Factor 11 mRNA compared to PBS control: antisense 40 mg/kg s.c. twice a week for three weeks, ISIS 418026 90 mg/kg single injection where given
# Method: The effect of the specific sense oligonucleotide to ISIS 404071 as an antidote was tested in BALB/c mice. In a first cohort, ISIS 404071 was administered subcutaneously to BALB/c mice twice a week for three weeks at a dose of 40 mg/kg. In a second cohort, ISIS 404057 was administered subcutaneously to BALB/c mice twice a week for three weeks at a dose of 40 mg/kg. The ISIS 404071 specific antidote, ISIS 418026 ([…]; complementary to ISIS 404071), incorporated herein as SEQ ID NO: 13, was administered to both cohorts subcutaneously in a single injection of 90 mg/kg 48 hours after the final treatment of ISIS 404071 or 404057. In a third cohort, ISIS 404071 was administered subcutaneously to BALB/c mice twice a week for three weeks at a dose of 40 mg/kg. Following the last treatment of ISIS 404071, mice were injected subcutaneously injected with PBS. In a fourth cohort, ISIS 404057 was administered subcutaneously to BALB/c mice twice a week for three weeks at a dose of 40 mg/kg. Following the last treatment of ISIS 404057, mice were injected subcutaneously injected with PBS. Following antidote administration, a set of 4 mice from each cohort were sacrificed at 12 hours, 1 day, 2 days, 3 days, 7 days, and 14 days. Whole liver was collected for RNA analysis and PPP was collected for aPTT analysis.
# RNA was extracted from liver tissue for real-time PCR analysis of Factor 11. Results are presented as percent inhibition of Factor 11, relative to PBS control.
# [4] = system: blood coagulation; experiment: PT and aPTT, combination with LOVENOX (Example 19); assay type: in vivo, BALB/c mice
# Method: PT and aPTT were measured using PPP from mice treated with ISIS 404071 in combination with LOVENOX. In the first cohort, ISIS 404071 was administered subcutaneously to BALB/c mice at a dosage of 25 mg/kg twice a week for 3 weeks. Plasma was collected from these mice 5 days after receiving the last dose of ISIS 404071. In the second cohort, LOVENOX was administered subcutaneously to BALB/c mice at a dosage of 20 mg/kg once daily for three days. Plasma was collected from these mice 4 hours after receiving the last dose of LOVENOX. In the third cohort, ISIS 404071 was administered subcutaneously to BALB/c mice at a dosage of 20 mg/kg twice a week for 3 weeks, and 2 days after receiving the last dose of ISIS 404071, LOVENOX was administered subcutaneously at a dosage of 20 mg/kg once daily. Plasma was collected from these mice 4 hours after the last dose of LOVENOX. In a fourth cohort, PBS was administered subcutaneously twice a week for three weeks, as a control. Plasma was collected from these mice 5 days after the last dose.
# PT and aPTT values provided in Table 31 are reported as International Normalized Ratio (INR) values. […] Also shown in Table 31, treatment with LOVENOX and treatment with ISIS 404071 combined with LOVENOX increase aPTT.
# [5] = ISIS 404071 10 mg/kg s.c. twice a week for 3 weeks
# [6] = ISIS 404071 20 mg/kg s.c. twice a week for 3 weeks
# [7] = ISIS 404071 40 mg/kg s.c. twice a week for 3 weeks
# [8] = murine plasma, ISIS 404071 10-40 mg/kg in vivo, LOVENOX 0-7.5 μg/ml ex vivo
# [9] = 5 mg/kg twice a week for 3 weeks
# [10] = 10 mg/kg twice a week for 3 weeks
# [11] = 25 mg/kg twice a week for 3 weeks
# [12] = 50 mg/kg twice a week for 3 weeks
# [13] = 5-50 mg/kg twice a week for 3 weeks
# [14] = ISIS 404071 alone 25 mg/kg s.c. twice a week for 3 weeks, LOVENOX alone 20 mg/kg s.c. once daily for three days, combination 20 mg/kg + 20 mg/kg
substance,measurement,setting,value
"ISIS 404071: antisense oligonucleotide targeted to murine Factor 11 mRNA, TGGTAATCCACTTTCAGAGG, target start site 869 (chemistry not given here)",PT INR in murine plasma,[1]; [5],0.97 INR
same,aPTT INR in murine plasma,[1]; [5],1.14 INR
same,PT INR in murine plasma,[1]; [6],1.00 INR
same,aPTT INR in murine plasma,[1]; [6],1.28 INR
same,PT INR in murine plasma,[1]; [7],0.97 INR
same,aPTT INR in murine plasma,[1]; [7],1.52 INR
same,PT,[1]; [8],does not significantly increase PT
same,aPTT,[1]; [8],also increases aPTT in a dose-dependent manner
same,PT INR,[2]; [9],1.06
same,aPTT INR,[2]; [9],1.09
same,PT INR,[2]; [10],1.08
same,aPTT INR,[2]; [10],1.13
same,PT INR,[2]; [11],1.06
same,aPTT INR,[2]; [11],1.35
same,PT INR,[2]; [12],1.02
same,aPTT INR,[2]; [12],2.08
same,PT,[2]; [13],not significantly prolonged
same,aPTT,[2]; [13],prolonged in a dose-dependent manner
same,Percent inhibition of mouse Factor 11 mRNA compared to PBS control,[3]; 12 hours after antidote/PBS,93%
same,Percent inhibition of mouse Factor 11 mRNA compared to PBS control,[3]; 1 day after antidote/PBS,90%
same,Percent inhibition of mouse Factor 11 mRNA compared to PBS control,[3]; 2 days after antidote/PBS,89%
same,Percent inhibition of mouse Factor 11 mRNA compared to PBS control,[3]; 3 days after antidote/PBS,88%
same,Percent inhibition of mouse Factor 11 mRNA compared to PBS control,[3]; 7 days after antidote/PBS,81%
same,Percent inhibition of mouse Factor 11 mRNA compared to PBS control,[3]; 14 days after antidote/PBS,67%
same,inhibition of Factor 11 mRNA over the 14 day observation period,"[3]; BALB/c mice, ISIS 404071 40 mg/kg, with or without ISIS 418026 90 mg/kg",progressive decrease in inhibition
same,PT,"[4]; BALB/c mice, ISIS 404071 25 or 20 mg/kg, LOVENOX 20 mg/kg",not significantly affected
same,PT INR,[4]; [14],0.95 INR
same,aPTT INR,[4]; [14],1.31 INR
